In patent publication US20250296916A1, “BICYCLIC PIPERAZINONES AND THERAPEUTIC USES THEREOF” (Cytokinetics, Inc., priority 2022, published 2025) one finds AC1.4 data, which are given here for 32 molecules.

For the test, the system named is rabbit skeletal myofibrils (approximately 90% fast fibers). Description: Activation of fast skeletal myofibrils (PUMA coupled-enzyme ATPase assay). Particulars: concentration at which the compound increased the enzymatic activity by 40%; calcium at pCa25; PM12 buffer pH 6.8. The test is classed as biochemical. On the procedure:
Preparation of fast skeletal myofibrils: Rabbit skeletal myofibrils were prepared based upon the method of Herrmann et al. (Biochem. 32 (28): 7255-7263 (1993). Myofibrils were prepared from rabbit psoas muscle purchased from Pel-Freez Biologicals (Arkansas) within 2 days of ordering, stored on ice. Minced muscle was homogenized in 10 volumes of ice-cold “standard” buffer (50 mM Tris, pH 7.4, 0.1 M KOAc, 5 mM KCl, 2 mM dithiothreitol (DTT), 0.2 mM phenylmethylsulfonyl fluoride (PMSF), 10 μM leupeptin, 5 μM pepstatin, and 0.5 mM sodium azide) containing 5 mM ethylenediaminetetraacetic acid (EDTA) and 0.5% Triton X-100 using an Omni-Macro homogenizer. Myofibrils were recovered by low speed centrifugation (3000 rpm for 10 minutes) and washed 2 times in the Triton X-100 containing buffer to ensure removal of cellular membrane. Following the Triton washes, myofibrils were washed 3 times in “standard” buffer containing 2 mM magnesium acetate. A final wash in assay buffer (12 mM piperazine-1,4-bis(2-ethanesulfonic acid) (PIPES), pH 6.8, 60 mM KCl, 1 mM DTT) was performed and brought to 10% sucrose for flash freezing in liquid nitrogen and storage at −80° C.
Activation of Fast Skeletal Myofibrils: Fast fiber activators were identified by measuring the enzymatic activity of muscle myofibril preparations using the proprietary PUMA (trademark) (see, e.g., U.S. Pat. Nos. 6,410,254, 6,743,599, 7,202,051, and 7,378,254) assay system. Myofibril preparations consisted of rabbit skeletal muscle (approximately 90% fast fibers) that had been mechanically homogenized and washed with a detergent (Triton X-100) to remove cellular membranes. This preparation retained all of the sarcomeric components in a native conformation and the enzymatic activity was still regulated by calcium. Compounds were tested using a myofibril suspension and a level of calcium sufficient to increase enzymatic activity of the myofibrils to 25% of their maximal rate (termed pCa25). Enzymatic activity was tracked via a pyruvate kinase and lactate dehydrogenase-coupled enzyme system. This assay regenerates myosin-produced ADP into ATP by oxidizing NADH, producing an absorbance change at 340 nm. The buffering system was 12 mM PIPES, 2 mM MgCl2, 1 mM DTT at pH 6.8 (PM12 buffer). […] In Table 3, “Example Compound” refers to the compound labeled with the same number in Table 2.
As for `CCC[C@H]1C(=O)Nc2ccccc2N1C(=O)c1ccc(OC(F)F)nc1` [Compound 24, (S)-4-(6-(difluoromethoxy)nicotinoyl)-3-propyl-3,4-dihydroquinoxalin-2(1H)-one], the AC1.4 was 0.4 µM.

With `CCC[C@H]1C(=O)Nc2ccccc2N1C(=O)c1ccc(N2CC(F)C2)nc1` [Compound 38, (S)-4-(6-(3-fluoroazetidin-1-yl)nicotinoyl)-3-propyl-3,4-dihydroquinoxalin-2(1H)-one], the AC1.4 was 1.58 µM.

Take `CC[C@H](C)[C@H]1C(=O)Nc2ccccc2N1C(=O)N1CC(F)(F)C1` [Compound 117, (S)-3-((S)-sec-butyl)-4-(3,3-difluoroazetidine-1-carbonyl)-3,4-dihydroquinoxalin-2(1H)-one]: the AC1.4 came out at 1.24 µM.

Take `CC[C@H](C)[C@H]1C(=O)Nc2ccccc2N1C(=O)N[C@H]1CCNC1` [Compound 126, (S)-2-((S)-sec-butyl)-3-oxo-N-((S)-pyrrolidin-3-yl)-3,4-dihydroquinoxaline-1(2H)-carboxamide]: the AC1.4 was found to be 1.53 µM.

`CC(C)[C@H]1C(=O)Nc2ccccc2N1C(=O)c1cnn(C)c1` [Compound 77, (S)-3-isopropyl-4-(1-methyl-1H-pyrazole-4-carbonyl)-3,4-dihydroquinoxalin-2(1H)-one]: the AC1.4 came to 0.08 µM.

For `CC[C@H](C)[C@H]1C(=O)Nc2ccc(F)cc2N1C(N)=O` [Compound 113, (S)-2-((S)-sec-butyl)-7-fluoro-3-oxo-3,4-dihydroquinoxaline-1(2H)-carboxamide], the AC1.4 was 2.01 µM.

For `CC[C@H](C)[C@H]1C(=O)Nc2c(F)cccc2N1C(N)=O` [Compound 100, (S)-2-((S)-sec-Butyl)-5-fluoro-3-oxo-3,4-dihydroquinoxaline-1(2H)-carboxamide], the AC1.4 amounted to 1.58 µM.

Turning to `CCC[C@H]1C(=O)Nc2ccccc2N1C(=O)c1ccc2cncn2c1` [Compound 65, (S)-4-(imidazo[1,5-a]pyridine-6-carbonyl)-3-propyl-3,4-dihydroquinoxalin-2(1H)-one], the AC1.4 came to 0.39 µM.

Consider `CCC[C@H]1C(=O)Nc2ccccc2N1C(=O)c1cnn(C2CCC2)c1` [Compound 32, (S)-4-(1-cyclobutyl-1H-pyrazole-4-carbonyl)-3-propyl-3,4-dihydroquinoxalin-2(1H)-one], for which the AC1.4 amounted to 0.71 µM.

As to `CC[C@H](C)[C@H]1C(=O)Nc2ccccc2N1C(=O)N(C)CCO` [Compound 131, (S)-2-((S)-sec-butyl)-N-(2-hydroxyethyl)-N-methyl-3-oxo-3,4-dihydroquinoxaline-1(2H)-carboxamide], the AC1.4 was 2.15 µM.

`CC[C@H](C)[C@H]1C(=O)Nc2ncccc2N1C(=O)c1cnn(C)c1` [Compound 95, (S)-2-((S)-sec-butyl)-1-(1-methyl-1H-pyrazole-4-carbonyl)-1,4-dihydropyrido[2,3-b]pyrazin-3(2H)-one]: the AC1.4 was 0.84 µM.

Turning to `CCC[C@H]1C(=O)Nc2ccccc2N1C(=O)c1ccc(N(C)C)nc1` [Compound 28, (S)-4-(6-(dimethylamino)nicotinoyl)-3-propyl-3,4-dihydroquinoxalin-2(1H)-one], the AC1.4 is 1.42 µM.

`CCC[C@H]1C(=O)Nc2ccccc2N1C(=O)Nc1ccccc1F` [Compound 56, (S)-N-(2-fluorophenyl)-3-oxo-2-propyl-3,4-dihydroquinoxaline-1(2H)-carboxamide]: the AC1.4 is 0.42 µM.

With `CCC[C@H]1C(=O)Nc2ccccc2N1C(=O)c1ccc(N2CC(F)(F)C2)nc1` [Compound 42, (S)-4-(6-(3,3-difluoroazetidin-1-yl)nicotinoyl)-3-propyl-3,4-dihydroquinoxalin-2(1H)-one], the AC1.4 was 2.34 µM.

`CC[C@H](C)[C@H]1C(=O)Nc2ccccc2N1C(=O)c1cn[nH]c1` [Compound 72, (S)-3-((S)-sec-butyl)-4-(1H-pyrazole-4-carbonyl)-3,4-dihydroquinoxalin-2(1H)-one]: the AC1.4 came out at 0.07 µM.

Regarding `CC[C@H](C)[C@H]1C(=O)Nc2ccccc2N1C(=O)N1CCCC1` [Compound 104, (S)-3-((S)-sec-butyl)-4-(pyrrolidine-1-carbonyl)-3,4-dihydroquinoxalin-2(1H)-one], the AC1.4 worked out at 1.31 µM.

For the molecule `CC[C@H](C)[C@H]1C(=O)Nc2ccccc2N1C(=O)c1ccc(N)nc1` [Compound 74, (S)-4-(6-aminonicotinoyl)-3-((S)-sec-butyl)-3,4-dihydroquinoxalin-2(1H)-one], the AC1.4 was determined as 0.08 µM.

Regarding `CC[C@H](C)[C@H]1C(=O)Nc2ccccc2N1C(=O)N(C)CCCO` [Compound 115, (S)-2-((S)-sec-butyl)-N-(3-hydroxypropyl)-N-methyl-3-oxo-3,4-dihydroquinoxaline-1(2H)-carboxamide], the AC1.4 turned out to be 2.29 µM.

As for `CCC[C@H]1C(=O)Nc2ccccc2N1C(=O)c1ccn2cncc2c1` [Compound 66, (S)-4-(imidazo[1,5-a]pyridine-7-carbonyl)-3-propyl-3,4-dihydroquinoxalin-2(1H)-one], the AC1.4 turned out to be 0.17 µM.

In the case of `CC[C@H](C)[C@H]1C(=O)Nc2ccccc2N1C(=O)N1CC[C@H](CO)C1` [Compound 107, (S)-3-((S)-sec-butyl)-4-((S)-3-(hydroxymethyl)pyrrolidine-1-carbonyl)-3,4-dihydroquinoxalin-2(1H)-one], the AC1.4 was 0.44 µM.

Take `CCC[C@H]1C(=O)Nc2ccccc2N1C(=O)c1ccc(N2CCC(F)C2)nc1` (stereo partly drawn) [Compound 41, (3S)-4-(6-(3-fluoropyrrolidin-1-yl)nicotinoyl)-3-propyl-3,4-dihydroquinoxalin-2(1H)-one]: the AC1.4 was determined as 1.63 µM.

Consider `CC[C@H](C)[C@H]1C(=O)Nc2ccccc2N1C(=O)NC1CCN(CCO)CC1` [Compound 130, (S)-2-((S)-sec-butyl)-N-(1-(2-hydroxyethyl)piperidin-4-yl)-3-oxo-3,4-dihydroquinoxaline-1(2H)-carboxamide], for which the AC1.4 amounted to 2.13 µM.

Regarding `CCC[C@H]1C(=O)Nc2ccccc2N1C(=O)c1ccc(Cl)nc1` [Compound 5, (S)-4-(6-chloronicotinoyl)-3-propyl-3,4-dihydroquinoxalin-2(1H)-one], the AC1.4 was 0.38 µM.

Turning to `CCC[C@H]1C(=O)Nc2ccccc2N1C(=O)c1ccc(N2CC(OC)C2)nc1` [Compound 40, (S)-4-(6-(3-methoxyazetidin-1-yl)nicotinoyl)-3-propyl-3,4-dihydroquinoxalin-2(1H)-one], the AC1.4 is 2.37 µM.

Regarding `CC[C@H](C)[C@H]1C(=O)Nc2ccccc2N1C(=O)N1CCC[C@H](O)C1` [Compound 114, (S)-3-((S)-sec-butyl)-4-((S)-3-hydroxypiperidine-1-carbonyl)-3,4-dihydroquinoxalin-2(1H)-one], the AC1.4 was found to be 1.69 µM.

Regarding `CCC[C@H]1C(=O)Nc2ccc(Cl)cc2N1C(=O)c1cnn(C)c1` [Compound 64, (S)-6-Chloro-4-(1-methyl-1H-pyrazole-4-carbonyl)-3-propyl-3,4-dihydroquinoxalin-2(1H)-one], the AC1.4 worked out at 0.24 µM.

In the case of `CC(C)[C@H]1C(=O)Nc2ccccc2N1C(=O)c1cn[nH]c1` [Compound 86, (S)-3-isopropyl-4-(1H-pyrazole-4-carbonyl)-3,4-dihydroquinoxalin-2(1H)-one], the AC1.4 worked out at 0.2 µM.

With `CC[C@H](C)[C@H]1C(=O)Nc2ccccc2N1C(=O)N1CC(CO)C1` [Compound 111, (S)-3-((S)-sec-butyl)-4-(3-(hydroxymethyl)azetidine-1-carbonyl)-3,4-dihydroquinoxalin-2(1H)-one], the AC1.4 was determined as 2.06 µM.

Regarding `CC(C)[C@H]1C(=O)Nc2ccccc2N1C(=O)c1cnn(C2CC2)c1` [Compound 84, (S)-4-(1-cyclopropyl-1H-pyrazole-4-carbonyl)-3-isopropyl-3,4-dihydroquinoxalin-2(1H)-one], the AC1.4 turned out to be 0.29 µM.

Take `CCC[C@H]1C(=O)Nc2ccccc2N1C(=O)c1ccc(N)nc1` [Compound 27, (S)-4-(6-aminonicotinoyl)-3-propyl-3,4-dihydroquinoxalin-2(1H)-one]: the AC1.4 worked out at 0.76 µM.

In the case of `CCC[C@H]1C(=O)Nc2ccccc2N1C(=O)NCc1ccccc1` [Compound 49, (S)-N-benzyl-3-oxo-2-propyl-3,4-dihydroquinoxaline-1(2H)-carboxamide], the AC1.4 is 2.08 µM.

Regarding `CCC[C@H]1C(=O)Nc2ccccc2N1C(=O)c1ccc(F)nc1` [Compound 6, (S)-4-(6-fluoronicotinoyl)-3-propyl-3,4-dihydroquinoxalin-2(1H)-one], the AC1.4 was 2.19 µM.
